The test system of data set [1] is Mus musculus. Briefly: Anti-inflammatory activity in Mus musculus BALB/c (mouse) assessed as inhibition of carrageenan-induced paw swelling at 100 mg/kg, po administered 1 hr followed by carrageenan challenge measured at 180 min relative to control. It counts as functional.
Data set [2] relates to Mus musculus. Briefly: Anti-inflammatory activity in Mus musculus BALB/c (mouse) assessed as carrageenan-induced paw swelling at 100 mg/kg, po administered 1 hr followed by carrageenan challenge measured at 90 min (reference value: 39 +/- 5.6 x 10^-2 mm). It counts as functional.
The test system of data set [3] is Mus musculus. Briefly: Toxicity in Mus musculus BALB/c (mouse) assessed as mortality at 50 to 200 mg/kg, po after 72 hr. Format: organism-based. Details: dose 50-200 mg/kg, route oral. The settings on record: in vivo.
In data set [4] the test system is Mus musculus. Briefly: Antioxidant activity in Mus musculus BALB/c (mouse) stomach assessed as TBARS level at 100 mg/kg, po (reference value: 80.4 +/- 5.4 nmol/g ). It counts as functional.
The test system of data set [5] is Mus musculus. Briefly: Anti-inflammatory activity in Mus musculus BALB/c (mouse) assessed as carrageenan-induced paw swelling at 100 mg/kg, po administered 1 hr followed by carrageenan challenge measured at 180 min (reference value: 52 +/- 4.6 x 10^-2 mm). It counts as functional.
Data set [6] has as its system Mus musculus. In words: Anti-inflammatory activity in Mus musculus BALB/c (mouse) assessed as carrageenan-induced paw swelling at 100 mg/kg, po administered 1 hr followed by carrageenan challenge measured at 360 min (reference value: 105 +/- 4.5 x 10^-2 mm). Format: functional.
Data set [7] relates to Mus musculus. Briefly: Anti-inflammatory activity in Mus musculus BALB/c (mouse) assessed as inhibition of carrageenan-induced paw swelling at 50 mg/kg, po administered 1 hr followed by carrageenan challenge measured at 270 min relative to control. It counts as functional.
Data set [8] concerns Mus musculus. Briefly: Anti-inflammatory activity in Mus musculus BALB/c (mouse) assessed as inhibition of carrageenan-induced paw swelling at 200 mg/kg, po administered 1 hr followed by carrageenan challenge measured at 90 min relative to control. Format: functional.
Data set [9] deals with Mus musculus. In words: Anti-inflammatory activity in Mus musculus BALB/c (mouse) assessed as carrageenan-induced paw swelling at 200 mg/kg, po administered 1 hr followed by carrageenan challenge measured at 360 min (reference value: 105 +/- 4.5 x 10^-2 mm). Format: functional.
In data set [10] the test system is Mus musculus. Briefly: Anti-inflammatory activity in Mus musculus BALB/c (mouse) assessed as carrageenan-induced paw swelling at 200 mg/kg, po administered 1 hr followed by carrageenan challenge measured at 180 min (reference value: 52 +/- 4.6 x 10^-2 mm). Format: functional.
Data set [11] deals with Mus musculus. Briefly: Anti-inflammatory activity in Mus musculus BALB/c (mouse) assessed as carrageenan-induced paw swelling at 50 mg/kg, po administered 1 hr followed by carrageenan challenge measured at 270 min (reference value: 78 +/- 8.4 x 10^-2 mm). Format: functional.
Data set [12] relates to Mus musculus. In words: Anti-inflammatory activity in Mus musculus BALB/c (mouse) assessed as carrageenan-induced paw swelling at 50 mg/kg, po administered 1 hr followed by carrageenan challenge measured at 360 min (reference value: 105 +/- 4.5 x 10^-2 mm). Format: functional.
The test system of data set [13] is Mus musculus. In words: Toxicity in Mus musculus BALB/c (mouse) assessed as behavioral changes at 50 to 200 mg/kg, po after 72 hr. It counts as organism-based. Details: dose 50-200 mg/kg, route oral. The following applies: in vivo.
Data set [14] concerns Mus musculus. Briefly: Anti-inflammatory activity in Mus musculus BALB/c (mouse) assessed as carrageenan-induced paw swelling at 50 mg/kg, po administered 1 hr followed by carrageenan challenge measured at 180 min (reference value: 52 +/- 4.6 x 10^-2 mm). It counts as functional.
The subject of data set [15] is Mus musculus. In words: Anti-inflammatory activity in Mus musculus BALB/c (mouse) assessed as carrageenan-induced paw swelling at 50 mg/kg, po administered 1 hr followed by carrageenan challenge measured at 90 min (reference value: 39 +/- 5.6 x 10^-2 mm). It counts as functional.
Data set [16] has as its system Mus musculus. In words: Anti-inflammatory activity in Mus musculus BALB/c (mouse) assessed as carrageenan-induced paw swelling at 100 mg/kg, po administered 1 hr followed by carrageenan challenge measured at 270 min (reference value: 78 +/- 8.4 x 10^-2 mm). Format: functional.
Data set [17] deals with Mus musculus. Briefly: Anti-inflammatory activity in Mus musculus BALB/c (mouse) assessed as carrageenan-induced paw swelling at 200 mg/kg, po administered 1 hr followed by carrageenan challenge measured at 90 min (reference value: 39 +/- 5.6 x 10^-2 mm). Format: functional.
Data set [18] deals with Mus musculus. Briefly: Anti-inflammatory activity in Mus musculus BALB/c (mouse) assessed as carrageenan-induced paw swelling at 200 mg/kg, po administered 1 hr followed by carrageenan challenge measured at 270 min (reference value: 78 +/- 8.4 x 10^-2 mm). Format: functional.
Data set [19] deals with Mus musculus. Briefly: Anti-inflammatory activity in Mus musculus BALB/c (mouse) assessed as inhibition of carrageenan-induced paw swelling at 200 mg/kg, po administered 1 hr followed by carrageenan challenge measured at 360 min relative to control. Format: functional.
Data set [20] deals with Mus musculus. In words: Anti-inflammatory activity in Mus musculus BALB/c (mouse) assessed as inhibition of carrageenan-induced paw swelling at 100 mg/kg, po administered 1 hr followed by carrageenan challenge measured at 360 min relative to control. Format: functional.
The subject of data set [21] is Mus musculus. In words: Anti-inflammatory activity in Mus musculus BALB/c (mouse) assessed as inhibition of carrageenan-induced paw swelling at 100 mg/kg, po administered 1 hr followed by carrageenan challenge measured at 270 min relative to control. It counts as functional.
In data set [22] the test system is Mus musculus. Briefly: Anti-inflammatory activity in Mus musculus BALB/c (mouse) assessed as inhibition of carrageenan-induced paw swelling at 50 mg/kg, po administered 1 hr followed by carrageenan challenge measured at 360 min relative to control. It counts as functional.
In data set [23] the test system is Mus musculus. Briefly: Analgesic activity in Mus musculus BALB/c (mouse) assessed as inhibition of acetic acid-induced writhing at 100 mg/kg, po administered 1 hr followed by acetic acid challenge measured for 10 min. It counts as functional.
The subject of data set [24] is Mus musculus. In words: Anti-inflammatory activity in Mus musculus BALB/c (mouse) assessed as inhibition of carrageenan-induced paw swelling at 200 mg/kg, po administered 1 hr followed by carrageenan challenge measured at 270 min relative to control. It counts as functional.
Data set [25] deals with Mus musculus. In words: Anti-inflammatory activity in Mus musculus BALB/c (mouse) assessed as inhibition of carrageenan-induced paw swelling at 200 mg/kg, po administered 1 hr followed by carrageenan challenge measured at 180 min relative to control. It counts as functional.
The test system of data set [26] is Mus musculus. In words: Anti-inflammatory activity in Mus musculus BALB/c (mouse) assessed as inhibition of carrageenan-induced paw swelling at 10 mg/kg, po administered 1 hr followed by carrageenan challenge measured at 180 min relative to control. Format: functional.
The test system of data set [27] is Mus musculus. Briefly: Anti-inflammatory activity in Mus musculus BALB/c (mouse) assessed as inhibition of carrageenan-induced paw swelling at 10 mg/kg, po administered 1 hr followed by carrageenan challenge measured at 360 min relative to control. Format: functional.
The subject of data set [28] is Mus musculus. In words: Anti-inflammatory activity in Mus musculus BALB/c (mouse) assessed as inhibition of carrageenan-induced paw swelling at 10 mg/kg, po administered 1 hr followed by carrageenan challenge measured at 270 min relative to control. Format: functional.
Data set [29] concerns Mus musculus. Briefly: Anti-inflammatory activity in Mus musculus BALB/c (mouse) assessed as inhibition of carrageenan-induced paw swelling at 10 mg/kg, po administered 1 hr followed by carrageenan challenge measured at 90 min relative to control. Format: functional.

Consider 5 compounds from ChEMBL document CHEMBL3046590, “Design and synthesis of some thiazolotriazolyl esters as anti-inflammatory and analgesic agents” (Med Chem Res, 2012).

For the compound `COc1ccc(-c2nnc(S)[nH]2)cc1`, the inhibition in vivo at 100 mg/kg in [1] amounted to 37.9%. Moreover, the Activity in data set [2] is 33.7 ×10⁻² mm; in data set [3] it was “Non-toxic”; in data set [4], 73.3 nmol/g; in data set [5], 32.3 ×10⁻² mm; in data set [6], 133 ×10⁻² mm; in data set [9], 104.5 ×10⁻² mm. The Activity in data set [10] is listed as 53.2 ×10⁻² mm; in data set [11] it was 64.8 ×10⁻² mm; in data set [12] it was 100 ×10⁻² mm; in data set [13], “Non-toxic”; in data set [14] it was 49.7 ×10⁻² mm; in [15] it was 59.3 ×10⁻² mm. Also, the Activity stood at 79.5 ×10⁻² mm in [16], 32.4 ×10⁻² mm in [17] and 75 ×10⁻² mm in data set [18]. The inhibition in vivo at 50 mg/kg in data set [7] was 17.9%. Also, the inhibition in vivo at 200 mg/kg in data set [8] came out at 16.9%.

With `COc1ccc(CCC2=NC(=S)N=N2)cc1`, the inhibition in vivo at 100 mg/kg turned out to be 51.3% in [1], 23.3% in data set [20], 30.8% in data set [21] and 24.3% in [23]. Besides, the Activity in data set [2] is given as 36.3 ×10⁻² mm; in data set [3], “Non-toxic”; in data set [4], 116.2 nmol/g; in [5] it was 25.3 ×10⁻² mm; in [6], 80.5 ×10⁻² mm; in [9] it was 87.6 ×10⁻² mm. Besides, the Activity is recorded as 46.4 ×10⁻² mm in data set [10]; 73.6 ×10⁻² mm in data set [11]; 78.2 ×10⁻² mm in [12]; “Non-toxic” in data set [13]; 46.8 ×10⁻² mm in data set [14]; 50 ×10⁻² mm in [15]. Besides, the Activity in data set [16] is on record as 54 ×10⁻² mm; in [17], 42.1 ×10⁻² mm; in data set [18], 66.3 ×10⁻² mm. Moreover, the inhibition in vivo at 200 mg/kg in [19] turned out to be 16.6%; in data set [24], 15%. The inhibition in vivo at 50 mg/kg in [22] came to 25.5%.

With `CCOC(=O)Cc1csc2nc(-c3ccc(Cl)cc3)nn12`, the Activity in data set [2] was 43.7 ×10⁻² mm; in data set [3] it was “Non-toxic”; in data set [4] it was 157.2 nmol/g; in data set [5] it was 52.5 ×10⁻² mm; in [6] it was 70 ×10⁻² mm; in data set [9], 86.7 ×10⁻² mm. The Activity in data set [10] was 37.2 ×10⁻² mm; in data set [11] it was 88.5 ×10⁻² mm; in data set [12], 105 ×10⁻² mm; in [13], “Non-toxic”; in data set [14], 66.1 ×10⁻² mm; in data set [15], 61 ×10⁻² mm. For the same compound, the values for the Activity in data set [16], in [17] and in [18] were 82.5 ×10⁻² mm, 29.1 ×10⁻² mm and 58.6 ×10⁻² mm, respectively. In addition, the inhibition in vivo at 200 mg/kg in data set [19] was determined as 17.4%; in data set [8] it was 25.4%; in [24], 24.9%; in [25] it was 28.5%. Also, the inhibition in vivo at 100 mg/kg in data set [20] is 33.3%; in data set [23], 38.5%.

For the compound `CCOC(=O)Cc1csc2nc(-c3cc(Cl)cc(Cl)c3)nn12`, the Activity in [2] is 40 ×10⁻² mm; in data set [3] it was “Non-toxic”; in data set [4], 200.1 nmol/g; in data set [5] it was 66.2 ×10⁻² mm; in [6] it was 60 ×10⁻² mm; in [9] it was 83.1 ×10⁻² mm. Also, the Activity in data set [10] is recorded as 43 ×10⁻² mm; in data set [11], 78 ×10⁻² mm; in [12], 96 ×10⁻² mm; in data set [13], “Non-toxic”; in data set [14], 49 ×10⁻² mm; in [15], 70.4 ×10⁻² mm. For the same compound, the Activity in data set [16] is 65 ×10⁻² mm; in data set [17] it was 41.6 ×10⁻² mm; in [18], 61.3 ×10⁻² mm. Also, the inhibition in vivo at 200 mg/kg amounted to 20.8% in [19], 21.4% in data set [24] and 17.3% in data set [25]. Besides, the figures for the inhibition in vivo at 100 mg/kg in data set [20], in data set [21] and in data set [23] were 42.8%, 16.7% and 35.9%, respectively.

In the case of `COc1ccc2c(c1)c(CC(=O)O)c(C)n2C(=O)c1ccc(Cl)cc1` [INDOMETHACIN], the Activity result in [3] and in data set [13] was “Non-toxic” in each case. Also, the inhibition in vivo at 10 mg/kg was 56.7% in data set [26], 26.7% in data set [27], 34.6% in data set [28] and 6.9% in data set [29].
